Among the data in ChEMBL document CHEMBL3045537, “Synthesis of 2-(aryl)-5-(arylidene)-4-thiazolidinone derivatives with potential analgesic and anti-inflammatory activity” (2012) are Activity values, retold here.

Structures are written as SMILES.

Holding throughout (type): functional
The test system of one test is Mus musculus. In words: Analgesic activity in Mus musculus (mouse) assessed as protection against acetic acid-induced writhing at 10 mg/kg, po administered 30 min prior challenge measured for 20 min.
The subject of test [1] is Rattus norvegicus. In words: Anti-inflammatory activity inRattus norvegicus albino (rat) assessed as reduction of carrageenan-induced paw edema at 10 mg/kg, po administered 1 hr prior challenge measured after 2 hr post challenge by plethismometer. More on the design: scale not given: the % may be the effect or the level left. For orientation: The carrageenan paw model is a standard test of acute inflammation.

The test system of test [2] is Rattus norvegicus. Nature of the test: Anti-inflammatory activity inRattus norvegicus albino (rat) assessed as reduction of carrageenan-induced paw edema at 10 mg/kg, po administered 1 hr prior challenge measured after 4 hr post challenge by plethismometer. More on the design: scale not given: the % may be the effect or the level left.

As for `O=C(NN1C(=O)/C(=C/c2ccccc2)SC1c1cccc([N+](=O)[O-])c1)c1ccc(-c2ccccc2)cc1` (configuration not stated), the Activity was found to be 40.85% with Mus musculus, 38.09% with Rattus norvegicus [1] and 47.99% in the test on Rattus norvegicus [2].
For `O=C(NN1C(=O)/C(=C/c2ccc(Cl)cc2)SC1c1cccc([N+](=O)[O-])c1)c1ccc(-c2ccccc2)cc1` (configuration not stated), the Activity with Mus musculus is 46.25%; with Rattus norvegicus [1], 39.94%; with Rattus norvegicus [2] it was 49.23%.
On the same counts, the results for `O=C(NN1C(=O)/C(=C/c2cccc(Br)c2)SC1c1ccc(Cl)cc1)c1ccc(-c2ccccc2)cc1` (configuration not stated) are 17.93%, 44.56% and 54.8%.
On the same counts, the results for `COc1ccc(C2S/C(=C\c3ccccc3)C(=O)N2NC(=O)c2ccc(-c3ccccc3)cc2)cc1` (configuration not stated) are 38.35%, 45.83% and 68.74%.
Turning to `COc1ccc(/C=C2\SC(c3ccc(Cl)cc3)N(NC(=O)c3ccc(-c4ccccc4)cc3)C2=O)cc1` (configuration not stated), the Activity with Mus musculus was 29.6%; with Rattus norvegicus [1], 45.83%; in the test with Rattus norvegicus [2], 53.87%.
As to `O=C(NN1C(=O)/C(=C/c2ccccc2)SC1c1ccc(Cl)cc1)c1ccc(-c2ccccc2)cc1` (configuration not stated), the Activity in the test on Mus musculus is reported as 20.43%; with Rattus norvegicus [1], 48.92%; in the test with Rattus norvegicus [2], 55.11%.
The like results for `O=C(NN1C(=O)/C(=C/c2cccc(Br)c2)SC1c1ccc(F)cc1)c1ccc(-c2ccccc2)cc1` (configuration not stated) were, in that order, 37.5%, 41.76% and 52.08%.
The like results for `COc1ccc(/C=C2\SC(c3ccc(OC)cc3)N(NC(=O)c3ccc(-c4ccccc4)cc3)C2=O)cc1` (configuration not stated) were, in that order, 40.43%, 49.54% and 70.28%.
With `O=C(NN1C(=O)/C(=C/c2ccc(Cl)cc2)SC1c1ccc(Cl)cc1)c1ccc(-c2ccccc2)cc1` (configuration not stated), the figures for the Activity with Mus musculus, with Rattus norvegicus [1] and in the test with Rattus norvegicus [2] were 22.93%, 46.14% and 55.34%, respectively.
As to `COc1ccc(C2S/C(=C\c3ccc(Cl)cc3)C(=O)N2NC(=O)c2ccc(-c3ccccc3)cc2)cc1` (configuration not stated), the figures for the Activity in the test with Mus musculus, in the test with Rattus norvegicus [1] and in the test on Rattus norvegicus [2] were 32.1%, 57.9% and 71.83%, respectively.
The like results for `O=C(NN1C(=O)/C(=C/c2ccc(Cl)cc2)SC1c1ccc(F)cc1)c1ccc(-c2ccccc2)cc1` (configuration not stated) were, in that order, 46.25%, 43.64% and 52.92%.
The like results for `COc1ccc(/C=C2\SC(c3ccc(F)cc3)N(NC(=O)c3ccc(-c4ccccc4)cc3)C2=O)cc1` (configuration not stated) were, in that order, 37.93%, 45.82% and 53.62%.
The like results for `O=C([O-])Cc1ccccc1Nc1c(Cl)cccc1Cl.[Na+]` [DICLOFENAC SODIUM] were, in that order, 68.5%, 54.18% and 79.26%.
`COc1ccc(C2S/C(=C\c3cccc([N+](=O)[O-])c3)C(=O)N2NC(=O)c2ccc(-c3ccccc3)cc2)cc1` (configuration not stated): the Activity came out at 36.25% in the test on Mus musculus, 47.68% with Rattus norvegicus [1] and 71.21% with Rattus norvegicus [2].
Turning to `COc1ccc(/C=C2\SC(c3cccc([N+](=O)[O-])c3)N(NC(=O)c3ccc(-c4ccccc4)cc3)C2=O)cc1` (configuration not stated), the Activity came to 37.93% in the test with Mus musculus, 37.78% in the test with Rattus norvegicus [1] and 48.92% with Rattus norvegicus [2].
The like results for `COc1ccc(C2S/C(=C\c3cccc(Br)c3)C(=O)N2NC(=O)c2ccc(-c3ccccc3)cc2)cc1` (configuration not stated) were, in that order, 33.35%, 46.75% and 69.05%.
On to `O=C(NN1C(=O)/C(=C/c2cccc([N+](=O)[O-])c2)SC1c1cccc([N+](=O)[O-])c1)c1ccc(-c2ccccc2)cc1` (configuration not stated), for which the values for the Activity with Mus musculus, with Rattus norvegicus [1] and in the test on Rattus norvegicus [2] were 43.35%, 39.63% and 51.37%, respectively.
On the same counts, the results for `O=C(NN1C(=O)/C(=C/c2cccc(Br)c2)SC1c1cccc([N+](=O)[O-])c1)c1ccc(-c2ccccc2)cc1` (configuration not stated) are 37.5%, 38.7% and 50.78%.
The like results for `O=C(NN1C(=O)/C(=C/c2cccc([N+](=O)[O-])c2)SC1c1ccc(Cl)cc1)c1ccc(-c2ccccc2)cc1` (configuration not stated) were, in that order, 27.5%, 45.21% and 56.35%.
